Measurements published in patent US20260356819A1, “OXOISOINDOLINYL-SUBSTITUTED […] DERIVATIVE AND USE THEREOF” (GLUETACS THERAPEUTICS (SHANGHAI) CO., LTD., priority 2023, published 2026).

Tests used:
MM.1S cells = experiment: Inhibition of proliferation of multiple myeloma cells MM.1S (cell viability assay, 96 h); assay type: cell-based, human; conditions: read-out: inhibitory activity (IC50) against tumor cells proliferation, MM.1S
Procedure: The tumor cells used herein were cultured in a cell culture medium listed in table 2 at 37 °C in an incubator with 5% CO2. Prior to experimentation, all cell lines used were correctly identified by STR profiling, and tested negative for Mycoplasma contamination using a Mycoplasma detection kit through routine screenings.
The IC50 values of the compounds of the present disclosure (including the compounds in Table 1, and Examples 1-498) were determined using the CellTiter-Meiluncell Luminescent Cell Viability Assay Kit from Dalian Meilun Biotech Co., Ltd. The detailed procedure is as follows: Tumor cells were seeded in 96-well cell culture plates at the densities specified in Table 3. On the following day, the test compounds of the present disclosure were subjected to serial dilution. […] Subsequently, 0.5 μL of the test compound dilution was transferred into the 96-well plate containing the cells, with each well containing 100 μL of cell culture medium. […] Into the 96-well plate, the diluted test compounds and corresponding detection reagents were added, resulting in final test compound concentrations of 500 nM and 10 nM, respectively. The experimental procedure is described below using the diluted 2 μM test compound as an example.
0.5 μL of the aforementioned diluted compound of the present disclosure (including the compounds in Table 1, and Examples 1-498) was added to the seeded cells in 100 μL of medium, yielding a final test compound concentration of 10 nM. After the cells were treated with the compounds of the present disclosure for a specified period, the cell viability assay reagent was added to the culture medium according to the kit's instructions to determine cell viability. […] All controls were treated using the same procedure as the compounds of the present disclosure. The growth inhibition curves for the compounds of the present disclosure were plotted using Prism GraphPad software, and the IC50 values were calculated therefrom.

WEE1 = molecular target: T1, WEE1 (Homo sapiens, UniProt P30291+Q96SW2); experiment: Western blot degradation of WEE1 in hPBMCs (24 h); assay type: cell-based; conditions: compounds at 50 nM and 500 nM
T1 construct: The supernatant was aspirated as the extracted total cell protein; endogenous in cells; host or cells: human peripheral blood mononuclear cells (hPBMCs)
T1 sequence (P30291 whole entry): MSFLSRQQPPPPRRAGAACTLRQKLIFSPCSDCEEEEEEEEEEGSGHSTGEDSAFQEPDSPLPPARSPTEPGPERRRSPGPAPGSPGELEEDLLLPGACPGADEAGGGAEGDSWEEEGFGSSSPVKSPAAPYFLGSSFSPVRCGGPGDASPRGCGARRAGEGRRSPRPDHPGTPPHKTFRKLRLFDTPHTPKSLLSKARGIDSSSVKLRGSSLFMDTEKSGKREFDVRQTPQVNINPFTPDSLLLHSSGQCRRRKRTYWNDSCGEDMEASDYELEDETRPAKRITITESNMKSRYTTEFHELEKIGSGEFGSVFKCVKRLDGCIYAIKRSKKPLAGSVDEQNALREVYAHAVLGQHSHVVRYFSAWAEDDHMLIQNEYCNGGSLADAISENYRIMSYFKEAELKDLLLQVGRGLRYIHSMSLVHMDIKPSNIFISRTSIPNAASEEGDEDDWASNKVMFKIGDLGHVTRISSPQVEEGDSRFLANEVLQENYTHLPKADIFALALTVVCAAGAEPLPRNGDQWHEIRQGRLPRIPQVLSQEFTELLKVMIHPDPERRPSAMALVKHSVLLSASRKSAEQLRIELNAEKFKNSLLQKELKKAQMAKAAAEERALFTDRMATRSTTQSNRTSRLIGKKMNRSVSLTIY
T1 sequence (Q96SW2 whole entry): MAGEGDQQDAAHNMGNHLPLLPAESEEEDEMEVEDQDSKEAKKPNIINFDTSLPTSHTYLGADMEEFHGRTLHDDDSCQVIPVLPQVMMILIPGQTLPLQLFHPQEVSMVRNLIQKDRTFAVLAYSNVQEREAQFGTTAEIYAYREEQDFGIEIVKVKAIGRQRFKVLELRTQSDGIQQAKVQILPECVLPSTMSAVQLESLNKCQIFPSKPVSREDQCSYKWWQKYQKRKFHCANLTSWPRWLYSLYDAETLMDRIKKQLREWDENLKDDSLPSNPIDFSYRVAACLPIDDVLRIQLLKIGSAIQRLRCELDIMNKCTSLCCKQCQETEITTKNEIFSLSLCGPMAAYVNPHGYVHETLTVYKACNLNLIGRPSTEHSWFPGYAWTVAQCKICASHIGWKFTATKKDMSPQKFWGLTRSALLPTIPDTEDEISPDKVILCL
T1 sequence (Q16531 whole entry partner): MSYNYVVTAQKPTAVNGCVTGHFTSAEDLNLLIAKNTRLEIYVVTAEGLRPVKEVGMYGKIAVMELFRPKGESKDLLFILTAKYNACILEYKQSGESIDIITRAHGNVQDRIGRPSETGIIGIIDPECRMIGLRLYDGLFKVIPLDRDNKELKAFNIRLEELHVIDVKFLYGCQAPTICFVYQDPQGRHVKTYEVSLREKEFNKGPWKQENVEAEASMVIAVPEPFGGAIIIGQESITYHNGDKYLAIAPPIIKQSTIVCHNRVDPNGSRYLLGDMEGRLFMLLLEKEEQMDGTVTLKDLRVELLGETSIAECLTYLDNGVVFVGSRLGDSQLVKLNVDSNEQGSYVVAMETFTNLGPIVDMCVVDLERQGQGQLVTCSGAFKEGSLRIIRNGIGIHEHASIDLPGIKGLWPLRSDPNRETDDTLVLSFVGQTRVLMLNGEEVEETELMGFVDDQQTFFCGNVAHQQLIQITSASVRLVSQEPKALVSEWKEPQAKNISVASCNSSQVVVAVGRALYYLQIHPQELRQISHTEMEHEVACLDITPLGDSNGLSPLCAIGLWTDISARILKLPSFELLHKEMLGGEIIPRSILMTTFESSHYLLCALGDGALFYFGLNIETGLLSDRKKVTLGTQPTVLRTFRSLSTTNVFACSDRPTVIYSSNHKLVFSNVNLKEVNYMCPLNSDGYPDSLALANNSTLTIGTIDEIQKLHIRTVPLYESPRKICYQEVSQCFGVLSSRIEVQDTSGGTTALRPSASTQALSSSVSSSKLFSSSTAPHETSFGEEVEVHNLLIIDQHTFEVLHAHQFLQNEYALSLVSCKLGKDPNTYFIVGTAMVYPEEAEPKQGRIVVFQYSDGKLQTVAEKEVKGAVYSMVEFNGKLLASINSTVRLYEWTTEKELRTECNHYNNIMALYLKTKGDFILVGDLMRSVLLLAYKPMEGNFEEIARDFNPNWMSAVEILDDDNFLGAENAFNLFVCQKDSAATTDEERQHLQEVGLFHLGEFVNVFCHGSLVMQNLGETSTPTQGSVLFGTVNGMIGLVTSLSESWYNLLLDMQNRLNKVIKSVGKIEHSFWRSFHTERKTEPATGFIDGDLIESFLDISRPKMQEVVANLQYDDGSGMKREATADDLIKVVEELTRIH
In short: (§1)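 Immunoblot densitometry quantifies target loss in hPBMCs after a 24 h compound exposure (50 nM, 500 nM). Percent remaining is normalised band intensity; DC50 is the concentration giving half the DMSO-control band grayscale.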

IKZF1 = molecular target: T2, IKZF1 (Homo sapiens, UniProt Q13422+Q96SW2); experiment: Western blot degradation of IKZF1 in hPBMCs (24 h); assay type: cell-based; conditions: compounds at 50 nM and 500 nM
T2 construct: The supernatant was aspirated as the extracted total cell protein; endogenous in cells; host or cells: human peripheral blood mononuclear cells (hPBMCs)
T2 sequence (Q13422 whole entry): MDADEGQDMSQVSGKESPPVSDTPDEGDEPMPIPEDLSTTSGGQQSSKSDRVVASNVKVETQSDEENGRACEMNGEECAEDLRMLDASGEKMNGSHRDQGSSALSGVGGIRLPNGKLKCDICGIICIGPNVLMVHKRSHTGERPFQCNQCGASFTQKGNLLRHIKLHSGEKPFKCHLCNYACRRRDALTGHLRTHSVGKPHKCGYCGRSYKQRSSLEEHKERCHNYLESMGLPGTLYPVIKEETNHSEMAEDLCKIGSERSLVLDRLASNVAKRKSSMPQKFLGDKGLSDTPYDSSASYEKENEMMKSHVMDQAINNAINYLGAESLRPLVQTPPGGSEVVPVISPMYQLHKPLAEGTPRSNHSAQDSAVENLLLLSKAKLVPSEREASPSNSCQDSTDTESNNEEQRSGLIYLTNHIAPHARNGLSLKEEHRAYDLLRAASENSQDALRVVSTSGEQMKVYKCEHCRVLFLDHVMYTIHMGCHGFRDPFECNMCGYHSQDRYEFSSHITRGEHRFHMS
T2 sequence (Q96SW2 whole entry): as the sequence (Q96SW2 whole entry) above
T2 sequence (Q16531 whole entry partner): as the sequence (Q16531 whole entry partner) above
In short: as §1

IKZF2 = molecular target: T3, IKZF2 (Homo sapiens, UniProt Q96SW2+Q9UKS7); experiment: Western blot degradation of IKZF2 in hPBMCs (24 h); assay type: cell-based; conditions: compounds at 50 nM and 500 nM
T3 construct: The supernatant was aspirated as the extracted total cell protein; endogenous in cells; host or cells: human peripheral blood mononuclear cells (hPBMCs)
T3 sequence (Q9UKS7 whole entry): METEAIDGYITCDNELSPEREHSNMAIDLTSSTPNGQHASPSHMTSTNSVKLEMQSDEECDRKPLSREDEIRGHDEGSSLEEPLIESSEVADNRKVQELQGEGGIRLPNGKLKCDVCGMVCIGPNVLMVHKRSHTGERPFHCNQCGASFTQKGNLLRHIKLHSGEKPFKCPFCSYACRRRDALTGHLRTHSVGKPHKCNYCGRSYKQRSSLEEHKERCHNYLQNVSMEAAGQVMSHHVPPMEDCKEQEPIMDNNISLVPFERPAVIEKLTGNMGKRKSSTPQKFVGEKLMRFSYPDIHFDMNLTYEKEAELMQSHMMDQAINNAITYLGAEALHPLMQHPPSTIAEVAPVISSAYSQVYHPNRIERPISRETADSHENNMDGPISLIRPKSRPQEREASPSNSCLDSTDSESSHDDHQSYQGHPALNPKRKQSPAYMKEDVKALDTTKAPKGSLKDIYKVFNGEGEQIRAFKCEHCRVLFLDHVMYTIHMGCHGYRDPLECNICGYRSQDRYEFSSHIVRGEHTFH
T3 sequence (Q96SW2 whole entry): as the sequence (Q96SW2 whole entry) above
T3 sequence (Q16531 whole entry partner): as the sequence (Q16531 whole entry partner) above
In short: as §1

IKZF3 = molecular target: T4, IKZF3 (Homo sapiens, UniProt Q96SW2+Q9UKT9); experiment: Western blot degradation of IKZF3 in hPBMCs (24 h); assay type: cell-based; conditions: compounds at 50 nM and 500 nM
T4 construct: The supernatant was aspirated as the extracted total cell protein; endogenous in cells; host or cells: human peripheral blood mononuclear cells (hPBMCs)
In short: as §1

CK1α = molecular target: T5, CK1α (Homo sapiens, UniProt P48729+Q96SW2); experiment: Western blot degradation of CK1α in hPBMCs (24 h); assay type: cell-based; conditions: compounds at 50 nM and 500 nM
T5 construct: The supernatant was aspirated as the extracted total cell protein; endogenous in cells; host or cells: human peripheral blood mononuclear cells (hPBMCs)
T5 sequence (P48729 whole entry): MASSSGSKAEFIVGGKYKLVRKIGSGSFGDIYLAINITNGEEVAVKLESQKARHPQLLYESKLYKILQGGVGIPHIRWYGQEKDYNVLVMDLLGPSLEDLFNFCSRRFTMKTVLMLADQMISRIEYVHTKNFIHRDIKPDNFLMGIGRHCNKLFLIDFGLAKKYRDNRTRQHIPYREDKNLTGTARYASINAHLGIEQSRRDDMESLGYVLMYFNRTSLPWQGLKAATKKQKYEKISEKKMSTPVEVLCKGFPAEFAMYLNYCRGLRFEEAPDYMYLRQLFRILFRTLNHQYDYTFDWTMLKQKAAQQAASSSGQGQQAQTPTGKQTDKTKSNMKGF
T5 sequence (Q96SW2 whole entry): as the sequence (Q96SW2 whole entry) above
T5 sequence (Q16531 whole entry partner): as the sequence (Q16531 whole entry partner) above
In short: as §1

GSPT1 = molecular target: T6, GSPT1 (Homo sapiens, UniProt P15170+Q96SW2); experiment: Western blot degradation of GSPT1 in hPBMCs (24 h); assay type: cell-based; conditions: compounds at 50 nM and 500 nM
T6 construct: The supernatant was aspirated as the extracted total cell protein; endogenous in cells; host or cells: human peripheral blood mononuclear cells (hPBMCs)
T6 sequence (P15170 whole entry): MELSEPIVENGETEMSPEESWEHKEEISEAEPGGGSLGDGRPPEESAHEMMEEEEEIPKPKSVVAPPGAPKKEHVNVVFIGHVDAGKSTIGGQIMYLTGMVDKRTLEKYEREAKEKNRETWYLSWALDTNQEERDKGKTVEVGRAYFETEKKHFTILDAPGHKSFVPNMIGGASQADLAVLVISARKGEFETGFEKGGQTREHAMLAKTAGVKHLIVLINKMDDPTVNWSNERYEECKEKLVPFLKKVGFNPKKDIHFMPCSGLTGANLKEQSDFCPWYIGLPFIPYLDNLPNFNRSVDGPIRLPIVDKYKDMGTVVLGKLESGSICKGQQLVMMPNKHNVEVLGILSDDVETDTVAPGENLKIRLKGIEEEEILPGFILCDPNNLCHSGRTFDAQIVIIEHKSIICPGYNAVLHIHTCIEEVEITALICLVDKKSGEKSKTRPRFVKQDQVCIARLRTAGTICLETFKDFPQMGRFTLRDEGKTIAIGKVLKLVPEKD
T6 sequence (Q96SW2 whole entry): as the sequence (Q96SW2 whole entry) above
T6 sequence (Q16531 whole entry partner): as the sequence (Q16531 whole entry partner) above
In short: as §1

Structure (SMILES): O=C1CCN(N2Cc3cc(CN4C[C@@H]5C[C@H]4CN5c4cccc(Cl)c4Cl)ccc3C2=O)C(=O)N1 [GT-05163, 1-(5-(((1S,4S)-5-(2,3-dichlorophenyl)-2,5-diazabicyclo[2.2.1]heptan-2-yl)methyl)-1-oxoisoindolin-2-yl)dihydropyrimidine-2,4(1H,3H)-dione]
- IC50 (MM.1S cells): 500 to 1000 nM
- WEE1 substrate protein remaining % (WEE1): B (80%< substrate protein remaining % ≤100%)
- IKZF1 substrate protein remaining % (IKZF1): A (0% ≤ substrate protein remaining % ≤80%)
- IKZF2 substrate protein remaining % (IKZF2): A (0% ≤ substrate protein remaining % ≤80%)
- IKZF3 substrate protein remaining % (IKZF3): A (0% ≤ substrate protein remaining % ≤80%)
- CK1α substrate protein remaining % (CK1α): B (80%< substrate protein remaining % ≤100%)
- GSPT1 substrate protein remaining % (GSPT1): A (0% ≤ substrate protein remaining % ≤80%)

Structure (SMILES): O=C1CCN(N2Cc3cc(CN4CCC(c5c[nH]c6cc(F)ccc56)CC4)ccc3C2=O)C(=O)N1 [GT-05164, 1-(5-((4-(6-fluoro-1H-indol-3-yl)piperidin-1-yl)methyl)-1-oxoisoindolin-2-yl)dihydropyrimidine-2,4(1H,3H)-dione]
- IC50 (MM.1S cells): 100 to 300 nM
- WEE1 substrate protein remaining % (WEE1): B (80%< substrate protein remaining % ≤100%)
- IKZF1 substrate protein remaining % (IKZF1): A (0% ≤ substrate protein remaining % ≤80%)
- IKZF2 substrate protein remaining % (IKZF2): A (0% ≤ substrate protein remaining % ≤80%)
- IKZF3 substrate protein remaining % (IKZF3): B (80%< substrate protein remaining % ≤100%)
- CK1α substrate protein remaining % (CK1α): B (80%< substrate protein remaining % ≤100%)
- GSPT1 substrate protein remaining % (GSPT1): A (0% ≤ substrate protein remaining % ≤80%)

Structure (SMILES): O=C1CCN(N2Cc3cc(CN4CCC(N5CCc6cc(F)ccc65)CC4)ccc3C2=O)C(=O)N1 [GT-05165, 1-(5-((4-(5-fluoroindolin-1-yl)piperidin-1-yl)methyl)-1-oxoisoindolin-2-yl)dihydropyrimidine-2,4(1H,3H)-dione]
- IC50 (MM.1S cells): 500 to 1000 nM
- WEE1 substrate protein remaining % (WEE1): B (80%< substrate protein remaining % ≤100%)
- IKZF1 substrate protein remaining % (IKZF1): B (80%< substrate protein remaining % ≤100%)
- IKZF2 substrate protein remaining % (IKZF2): A (0% ≤ substrate protein remaining % ≤80%)
- IKZF3 substrate protein remaining % (IKZF3): B (80%< substrate protein remaining % ≤100%)
- CK1α substrate protein remaining % (CK1α): B (80%< substrate protein remaining % ≤100%)
- GSPT1 substrate protein remaining % (GSPT1): A (0% ≤ substrate protein remaining % ≤80%)

Structure (SMILES): O=C1CCN(N2Cc3cc(CN4CC=C(c5ccnc6cc(F)ccc56)CC4)ccc3C2=O)C(=O)N1 [GT-05166, 1-(5-((4-(7-fluoroquinolin-4-yl)-3,6-dihydropyridin-1(2H)-yl)methyl)-1-oxoisoindolin-2-yl)dihydropyrimidine-2,4(1H,3H)-dione]
- IC50 (MM.1S cells): 100 to 300 nM
- WEE1 substrate protein remaining % (WEE1): A (0% ≤ substrate protein remaining % ≤80%)
- IKZF1 substrate protein remaining % (IKZF1): A (0% ≤ substrate protein remaining % ≤80%)
- IKZF2 substrate protein remaining % (IKZF2): A (0% ≤ substrate protein remaining % ≤80%)
- IKZF3 substrate protein remaining % (IKZF3): A (0% ≤ substrate protein remaining % ≤80%)
- CK1α substrate protein remaining % (CK1α): B (80%< substrate protein remaining % ≤100%)
- GSPT1 substrate protein remaining % (GSPT1): A (0% ≤ substrate protein remaining % ≤80%)

Structure (SMILES): Cn1cc(C2=CCN(Cc3ccc4c(c3)CN(N3CCC(=O)NC3=O)C4=O)CC2)c2ccc(F)cc21 [GT-05167, 1-(5-((4-(6-fluoro-1-methyl-1H-indol-3-yl)-3,6-dihydropyridin-1 (2H)-yl)methyl)-1-oxoisoindolin-2-yl)dihydropyrimidine-2,4(1H,3H)-dione]
- IC50 (MM.1S cells): 10 to 50 nM
- WEE1 substrate protein remaining % (WEE1): A (0% ≤ substrate protein remaining % ≤80%)
- IKZF1 substrate protein remaining % (IKZF1): A (0% ≤ substrate protein remaining % ≤80%)
- IKZF2 substrate protein remaining % (IKZF2): A (0% ≤ substrate protein remaining % ≤80%)
- IKZF3 substrate protein remaining % (IKZF3): A (0% ≤ substrate protein remaining % ≤80%)
- CK1α substrate protein remaining % (CK1α): B (80%< substrate protein remaining % ≤100%)
- GSPT1 substrate protein remaining % (GSPT1): A (0% ≤ substrate protein remaining % ≤80%)

Structure (SMILES): O=C1CCN(N2Cc3cc(CN4CC(=C5CCOc6cc(F)ccc65)C4)ccc3C2=O)C(=O)N1 [GT-05168, 1-(5-((3-(7-fluorochroman-4-ylidene)azetidin-1-yl)methyl)-1-oxoisoindolin-2-yl)dihydropyrimidine-2,4(1H,3H)-dione]
- IC50 (MM.1S cells): 100 to 300 nM
- WEE1 substrate protein remaining % (WEE1): B (80%< substrate protein remaining % ≤100%)
- IKZF1 substrate protein remaining % (IKZF1): B (80%< substrate protein remaining % ≤100%)
- IKZF2 substrate protein remaining % (IKZF2): B (80%< substrate protein remaining % ≤100%)
- IKZF3 substrate protein remaining % (IKZF3): A (0% ≤ substrate protein remaining % ≤80%)
- CK1α substrate protein remaining % (CK1α): B (80%< substrate protein remaining % ≤100%)
- GSPT1 substrate protein remaining % (GSPT1): A (0% ≤ substrate protein remaining % ≤80%)

Structure (SMILES): O=C1CCN(N2Cc3cc(CN4CC(N5CCc6cc(F)ccc65)C4)ccc3C2=O)C(=O)N1 [GT-05169, 1-(5-((3-(5-fluoroindolin-1-yl)azetidin-1-yl)methyl)-1-oxoisoindolin-2-yl)dihydropyrimidine-2,4(1H,3H)-dione]
- IC50 (MM.1S cells): 100 to 300 nM
- WEE1 substrate protein remaining % (WEE1): B (80%< substrate protein remaining % ≤100%)
- IKZF1 substrate protein remaining % (IKZF1): B (80%< substrate protein remaining % ≤100%)
- IKZF2 substrate protein remaining % (IKZF2): A (0% ≤ substrate protein remaining % ≤80%)
- IKZF3 substrate protein remaining % (IKZF3): A (0% ≤ substrate protein remaining % ≤80%)
- CK1α substrate protein remaining % (CK1α): B (80%< substrate protein remaining % ≤100%)
- GSPT1 substrate protein remaining % (GSPT1): A (0% ≤ substrate protein remaining % ≤80%)

Structure (SMILES): O=C1CCN(N2Cc3cc(CN4CC=C(c5nccc(Cl)c5Cl)CC4)ccc3C2=O)C(=O)N1 [GT-06392, 1-(5-((3,4-dichloro-3′,6′-dihydro-[2,4′-bipyridin]-1′ (2′H)-yl)methyl)-1-oxoisoindolin-2-yl)dihydropyrimidine-2,4(1H,3H)-dione]
- IC50 (MM.1S cells): 300 to 500 nM
- WEE1 substrate protein remaining % (WEE1): A (0% ≤ substrate protein remaining % ≤80%)
- IKZF1 substrate protein remaining % (IKZF1): B (80%< substrate protein remaining % ≤100%)
- IKZF2 substrate protein remaining % (IKZF2): A (0% ≤ substrate protein remaining % ≤80%)
- IKZF3 substrate protein remaining % (IKZF3): A (0% ≤ substrate protein remaining % ≤80%)
- CK1α substrate protein remaining % (CK1α): A (0% ≤ substrate protein remaining % ≤80%)
- GSPT1 substrate protein remaining % (GSPT1): A (0% ≤ substrate protein remaining % ≤80%)

Structure (SMILES): O=C1CCN(N2Cc3cc(CN4CC=C(c5cncc(Cl)c5Cl)CC4)ccc3C2=O)C(=O)N1 [GT-06393, 1-(5-((4,5-dichloro-3′,6′-dihydro-[3,4′-bipyridin]-1′ (2′H)-yl)methyl)-1-oxoisoindolin-2-yl)dihydropyrimidine-2,4(1H,3H)-dione]
- IC50 (MM.1S cells): 500 to 1000 nM
- WEE1 substrate protein remaining % (WEE1): A (0% ≤ substrate protein remaining % ≤80%)
- IKZF1 substrate protein remaining % (IKZF1): B (80%< substrate protein remaining % ≤100%)
- IKZF2 substrate protein remaining % (IKZF2): A (0% ≤ substrate protein remaining % ≤80%)
- IKZF3 substrate protein remaining % (IKZF3): A (0% ≤ substrate protein remaining % ≤80%)
- CK1α substrate protein remaining % (CK1α): A (0% ≤ substrate protein remaining % ≤80%)
- GSPT1 substrate protein remaining % (GSPT1): A (0% ≤ substrate protein remaining % ≤80%)

Structure (SMILES): CC1(C)CCC(CN2CC3CC(C2)N3Cc2ccc3c(c2)CN(N2CCC(=O)NC2=O)C3=O)=C(c2ccc(Cl)cc2)C1 [GT-06456, 1-(5-((3-((4′-chloro-5,5-dimethyl-3,4,5,6-tetrahydro-[1,1′-biphenyl]-2-yl)methyl)-3,6-diazabicyclo[3.1.1]heptan-6-yl)methyl)-1-oxoisoindolin-2-yl)dihydropyrimidine-2,4(1H,3H)-dione]
- IC50 (MM.1S cells): 100 to 300 nM
- WEE1 substrate protein remaining % (WEE1): A (0% ≤ substrate protein remaining % ≤80%)
- IKZF1 substrate protein remaining % (IKZF1): A (0% ≤ substrate protein remaining % ≤80%)
- IKZF2 substrate protein remaining % (IKZF2): A (0% ≤ substrate protein remaining % ≤80%)
- IKZF3 substrate protein remaining % (IKZF3): A (0% ≤ substrate protein remaining % ≤80%)
- CK1α substrate protein remaining % (CK1α): A (0% ≤ substrate protein remaining % ≤80%)
- GSPT1 substrate protein remaining % (GSPT1): A (0% ≤ substrate protein remaining % ≤80%)
